Reference: publication PMC10882719 (Frontiers in Neuroscience, 2024)
Where two headings read alike, the source gives them in different places.

Columns and labels:
Format in all cases: cell-based
168 GPCRs [1] = biological target: T1, 168 GPCRs (Homo sapiens, UniProt O43193); conditions: MLNR
T1 construct: host or cells: PathHunter cell lines

168 GPCRs [2] = biological target: T2, 168 GPCRs (Homo sapiens, UniProt P25025)
T2 construct: host or cells: PathHunter cell lines
T2 sequence (P25025 1-360): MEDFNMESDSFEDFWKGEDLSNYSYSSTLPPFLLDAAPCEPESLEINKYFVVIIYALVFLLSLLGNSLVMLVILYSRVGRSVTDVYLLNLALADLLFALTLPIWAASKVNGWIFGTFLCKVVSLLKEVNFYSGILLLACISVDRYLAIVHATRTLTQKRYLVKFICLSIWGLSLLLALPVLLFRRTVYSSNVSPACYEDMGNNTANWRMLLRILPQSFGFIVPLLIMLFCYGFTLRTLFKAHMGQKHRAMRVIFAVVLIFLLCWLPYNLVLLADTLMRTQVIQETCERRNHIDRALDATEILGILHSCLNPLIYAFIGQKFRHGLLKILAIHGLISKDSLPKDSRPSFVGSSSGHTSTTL

168 GPCRs [3] = biological target: T3, 168 GPCRs (Homo sapiens, UniProt P30874); conditions: SSTR2
T3 construct: host or cells: PathHunter cell lines

168 GPCRs [4] = biological target: T4, 168 GPCRs (Homo sapiens, UniProt P48546); conditions: GIPR
T4 construct: host or cells: PathHunter cell lines
T4 sequence (P48546 22-466): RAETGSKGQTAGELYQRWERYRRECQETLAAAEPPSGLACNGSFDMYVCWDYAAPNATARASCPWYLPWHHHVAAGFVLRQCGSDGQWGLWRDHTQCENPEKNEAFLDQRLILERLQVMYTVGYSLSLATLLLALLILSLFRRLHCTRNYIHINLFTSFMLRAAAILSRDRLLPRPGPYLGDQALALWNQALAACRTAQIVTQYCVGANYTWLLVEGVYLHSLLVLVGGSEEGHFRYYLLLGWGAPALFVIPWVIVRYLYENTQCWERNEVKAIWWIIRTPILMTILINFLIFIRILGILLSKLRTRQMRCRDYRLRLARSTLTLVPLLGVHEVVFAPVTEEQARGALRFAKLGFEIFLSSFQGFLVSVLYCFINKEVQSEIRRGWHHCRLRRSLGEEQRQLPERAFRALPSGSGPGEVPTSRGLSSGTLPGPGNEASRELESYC

168 GPCRs [5] = biological target: T5, 168 GPCRs (Homo sapiens, UniProt Q5NUL3)
T5 construct: host or cells: PathHunter cell lines
T5 sequence (Q5NUL3 1-361): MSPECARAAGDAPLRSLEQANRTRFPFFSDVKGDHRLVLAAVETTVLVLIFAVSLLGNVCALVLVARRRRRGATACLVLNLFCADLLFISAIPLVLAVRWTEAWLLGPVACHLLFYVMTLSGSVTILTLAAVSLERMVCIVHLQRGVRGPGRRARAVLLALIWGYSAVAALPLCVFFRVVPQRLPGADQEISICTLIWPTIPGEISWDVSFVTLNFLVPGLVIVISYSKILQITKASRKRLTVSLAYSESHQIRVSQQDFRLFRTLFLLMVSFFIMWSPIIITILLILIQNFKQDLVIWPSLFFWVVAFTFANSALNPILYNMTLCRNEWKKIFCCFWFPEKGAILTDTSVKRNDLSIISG

168 GPCRs [6] = biological target: T6, 168 GPCRs (Homo sapiens, UniProt Q8TDS4); conditions: GPR109A
T6 construct: host or cells: PathHunter cell lines

168 GPCRs [7] = biological target: T7, 168 GPCRs (Homo sapiens, UniProt Q99705)
T7 construct: host or cells: PathHunter cell lines

168 GPCRs [8] = biological target: T8, 168 GPCRs (Homo sapiens, UniProt Q9UKP6); conditions: UTR2
T8 construct: host or cells: PathHunter cell lines
T8 sequence (Q9UKP6 1-389): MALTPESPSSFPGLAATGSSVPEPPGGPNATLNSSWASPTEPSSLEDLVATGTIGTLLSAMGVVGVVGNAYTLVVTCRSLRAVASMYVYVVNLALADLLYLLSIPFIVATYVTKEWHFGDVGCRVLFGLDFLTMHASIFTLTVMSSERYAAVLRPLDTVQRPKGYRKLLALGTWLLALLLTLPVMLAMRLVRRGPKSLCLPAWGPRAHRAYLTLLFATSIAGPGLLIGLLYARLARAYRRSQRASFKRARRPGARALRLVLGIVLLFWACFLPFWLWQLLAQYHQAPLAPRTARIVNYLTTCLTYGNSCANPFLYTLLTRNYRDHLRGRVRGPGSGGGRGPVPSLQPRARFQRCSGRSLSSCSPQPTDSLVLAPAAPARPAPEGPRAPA

T6 sequence (Q8TDS4 whole entry): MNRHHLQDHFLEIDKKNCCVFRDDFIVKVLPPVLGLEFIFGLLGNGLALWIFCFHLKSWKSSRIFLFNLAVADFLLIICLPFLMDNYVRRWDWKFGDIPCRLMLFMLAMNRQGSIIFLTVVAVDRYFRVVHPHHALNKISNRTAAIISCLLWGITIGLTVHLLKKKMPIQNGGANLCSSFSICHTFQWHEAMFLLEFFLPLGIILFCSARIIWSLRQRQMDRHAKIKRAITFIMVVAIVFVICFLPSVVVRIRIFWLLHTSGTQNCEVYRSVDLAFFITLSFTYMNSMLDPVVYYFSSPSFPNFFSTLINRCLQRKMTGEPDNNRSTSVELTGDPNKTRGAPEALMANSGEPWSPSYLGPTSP
T1 sequence (O43193 whole entry): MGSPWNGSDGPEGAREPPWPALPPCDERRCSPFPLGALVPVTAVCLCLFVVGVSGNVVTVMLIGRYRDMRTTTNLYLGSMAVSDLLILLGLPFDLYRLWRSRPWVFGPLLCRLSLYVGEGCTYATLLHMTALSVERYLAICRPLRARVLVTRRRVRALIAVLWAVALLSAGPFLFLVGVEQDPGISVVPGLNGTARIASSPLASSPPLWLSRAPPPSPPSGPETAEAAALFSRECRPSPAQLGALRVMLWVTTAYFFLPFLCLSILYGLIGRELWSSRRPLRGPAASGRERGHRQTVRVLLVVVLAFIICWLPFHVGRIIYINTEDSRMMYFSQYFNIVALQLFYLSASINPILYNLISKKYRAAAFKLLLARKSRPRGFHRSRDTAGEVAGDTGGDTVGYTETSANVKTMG
T3 sequence (P30874 whole entry): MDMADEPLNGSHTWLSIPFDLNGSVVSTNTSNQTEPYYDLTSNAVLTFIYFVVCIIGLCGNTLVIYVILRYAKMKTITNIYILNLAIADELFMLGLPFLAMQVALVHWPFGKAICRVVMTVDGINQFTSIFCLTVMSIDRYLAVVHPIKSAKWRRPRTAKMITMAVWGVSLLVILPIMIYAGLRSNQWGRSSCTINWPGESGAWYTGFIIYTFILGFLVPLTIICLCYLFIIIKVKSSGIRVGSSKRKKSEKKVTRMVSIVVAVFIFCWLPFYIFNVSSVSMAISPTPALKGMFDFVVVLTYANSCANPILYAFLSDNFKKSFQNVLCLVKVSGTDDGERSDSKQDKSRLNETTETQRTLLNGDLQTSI
T7 sequence (Q99705 whole entry): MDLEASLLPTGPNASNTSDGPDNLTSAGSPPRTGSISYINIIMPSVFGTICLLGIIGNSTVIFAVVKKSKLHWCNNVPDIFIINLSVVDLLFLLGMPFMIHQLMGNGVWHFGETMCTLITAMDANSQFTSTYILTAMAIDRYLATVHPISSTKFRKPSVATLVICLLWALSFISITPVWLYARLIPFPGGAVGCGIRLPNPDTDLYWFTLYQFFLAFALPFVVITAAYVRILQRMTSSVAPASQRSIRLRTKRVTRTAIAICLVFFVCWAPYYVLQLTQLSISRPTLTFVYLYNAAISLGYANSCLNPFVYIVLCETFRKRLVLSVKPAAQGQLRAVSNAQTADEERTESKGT

Structure (SMILES)	% Agonist Activity (168 GPCRs [1]; 1 uM) [%]	% Antagonist Activity (168 GPCRs [1]; 1 uM) [%]	% Agonist Activity (168 GPCRs [1]; 10 uM) [%]	% Antagonist Activity (168 GPCRs [1]; 10 uM) [%]	% Agonist Activity (168 GPCRs [2]; CXCR2, 1 uM) [%]	% Antagonist Activity (168 GPCRs [2]; CXCR2, 1 uM) [%]	% Agonist Activity (168 GPCRs [2]; CXCR2, 10 uM) [%]	% Antagonist Activity (168 GPCRs [2]; CXCR2, 10 uM) [%]	% Agonist Activity (168 GPCRs [3]; Conc 1 uM) [%]	% Antagonist Activity (168 GPCRs [3]; Conc 1 uM) [%]	% Agonist Activity (168 GPCRs [3]; Conc 10 uM) [%]	% Antagonist Activity (168 GPCRs [3]; Conc 10 uM) [%]	% Agonist Activity (168 GPCRs [4]; 1 uM) [%]	% Antagonist Activity (168 GPCRs [4]; 1 uM) [%]	% Agonist Activity (168 GPCRs [4]; 10 uM) [%]	% Antagonist Activity (168 GPCRs [4]; 10 uM) [%]	% Agonist Activity (168 GPCRs [5]; GPR120, 1 uM) [%]	% Antagonist Activity (168 GPCRs [5]; GPR120, 1 uM) [%]	% Agonist Activity (168 GPCRs [5]; GPR120, 10 uM) [%]	% Antagonist Activity (168 GPCRs [5]; GPR120, 10 uM) [%]	other results
CNC(C)Cc1ccc2c(c1)OCO2 (stereo not shown) [MDMA, 3,4-Methylenedioxy methamphetamine, reference compound]	-0.3	6.2	-0.1	16.3	-0.9	12.8	2.2	14.6	0	2.7	0.2	9.1	-2.6	-0.1	-3.3	-0.1	-3.7	11.3	-4.4	8.8	% Agonist Activity (168 GPCRs [6]; 1 uM): -2.1%; % Antagonist Activity (168 GPCRs [6]; 1 uM): 3.7%; % Agonist Activity (168 GPCRs [6]; 10 uM): 0.4%; % Antagonist Activity (168 GPCRs [6]; 10 uM): 1%; % Agonist Activity (168 GPCRs [7]; MCHR1, 1 uM): -4%; % Antagonist Activity (168 GPCRs [7]; MCHR1, 1 uM): 5.3%; % Agonist Activity (168 GPCRs [7]; MCHR1, 10 uM): -4.4%; % Antagonist Activity (168 GPCRs [7]; MCHR1, 10 uM): 2.1%; % Agonist Activity (168 GPCRs [8]; Conc 1 uM): -1.1%; % Antagonist Activity (168 GPCRs [8]; Conc 1 uM): 4.4%; % Agonist Activity (168 GPCRs [8]; Conc 10 uM): -0.1%; % Antagonist Activity (168 GPCRs [8]; Conc 10 uM): 14.3%
CNC(C)C(=O)c1ccc2c(c1)OCO2 (stereo not shown) [methylone]	-1.5	15.6	-1	12.3	-0.2	-7.6	-2.6	-1	0	-0.4	0.7	-4.2	-2.9	-1	-5.8	-5.1	-5.1	46.5	-5.8	40.3	% Agonist Activity (168 GPCRs [6]; 1 uM): -8.7%; % Antagonist Activity (168 GPCRs [6]; 1 uM): 1.4%; % Agonist Activity (168 GPCRs [6]; 10 uM): -4.3%; % Antagonist Activity (168 GPCRs [6]; 10 uM): -0.3%; % Agonist Activity (168 GPCRs [7]; MCHR1, 1 uM): 3.9%; % Antagonist Activity (168 GPCRs [7]; MCHR1, 1 uM): -12.2%; % Agonist Activity (168 GPCRs [7]; MCHR1, 10 uM): 3.1%; % Antagonist Activity (168 GPCRs [7]; MCHR1, 10 uM): -18.3%; % Agonist Activity (168 GPCRs [8]; Conc 1 uM): 0.6%; % Antagonist Activity (168 GPCRs [8]; Conc 1 uM): -2.1%; % Agonist Activity (168 GPCRs [8]; Conc 10 uM): 0%; % Antagonist Activity (168 GPCRs [8]; Conc 10 uM): 4.2%
